Measurements reported in patent US20180272034A1, “USE OF CSA COMPOUNDS TO PREVENT MICROBIAL BUILD-UP OR FOULING OF MEDICAL IMPLANTS” (BRIGHAM YOUNG UNIVERSITY, priority 2017, published 2018).
≈ marks a conversion by molar mass, not a printed value.

How the values were obtained:
[1] = system: Pseudomonas aeruginosa; settings: mixed-species biofilms grown 22 hours, 20 hours of treatment
Procedure: (§1) Several CSA compounds were tested against Pseudomonas aeruginosa and Staphylococcus aureus mixed-species biofilms grown for an initial 22 hours and subjected to 20 hours of treatment.

[2] = system: Staphylococcus aureus; settings: mixed-species biofilms grown 22 hours, 20 hours of treatment
Procedure: as §1

[3] = system: Pseudomonas aeruginosa (PA01); assay: Coated endotracheal tube segments, daily re-inoculation, growth in medium; type: cell-based; set-up: key to bacterial growth in medium, Day 1 / bacterial growth in medium, Day 2 / bacterial growth in medium, Day 3 / bacterial growth in medium, Day 4 / bacterial growth in medium, Day 5 / bacterial growth in medium, Day 6 / bacterial growth in medium, Day 7 / bacterial growth in medium, Day 10 / bacterial growth in medium, Day 8 / bacterial growth in medium, Day 9: N=no growth; G=growth; settings: hydrogel coating 10% CSA-131 HCl, 3% citric acid, PA01 re-inoculated every 24 h
Procedure: A hydrogel coating containing 10% CSA-131 HCl and 3% citric acid, relative to the hydrogel solids, was tested for antibacterial efficacy using endotracheal tube segments (5.0 mm). These tube segments (surface area of ca. 1.5 cm^2) were dip coated and cured to give coatings of approximately 10 microns. Coated tube segments were washed in phosphate buffered saline (PBS) for varied amounts of time before testing. Antibacterial testing involved immersing tube segments in 10% TSB in PBS (1.0 mL) and inoculating with Pseudomonas aeruginosa (PA01)@10^6 colony forming units (CFU). Samples were incubated for 24 h, and bacterial growth in the medium was assayed visually (i.e., turbidity in the medium is caused by unrestricted bacterial growth). […] And the converse is true: if growth is supported in the medium that the device is colonized, to some extent.
After 24 h of incubation, tube segments were immersed in fresh growth media (10% TSB in PBS, 1 mL), re-inoculated, and incubated. […] Experiments were performed in triplicate. N=no growth, G=growth.
Antibacterial activity of a hydrogel coating (ca. 10 microns) containing CSA-131 2-NDSA (10% by weight relative to hydrogel solids) was determined as described in Example 8 using methicillin-resistant Staphylococcus aureus (MRSA) and Pseudomonas aeruginosa (PA01).

[4] = Hydrogel coating stability and reaction with ethylene oxide (ETO)
Procedure: Releases of CSA-131 from hydrogel-based coatings were investigated, including examining coating stability and reaction of the coating with ethylene oxide (ETO) during sterilization processes. […] To mask this reactivity, coatings were prepared including varies percentages of citric acid to form non-volatile salts of the CSA compound.
Using a jet mill (Fluid Energy), CSA-131 2-NDSA was milled to an average particle size of 200 nm.

SMILES: CC[C@H](C)[C@H](NC(=O)[C@H](CCCCN)NC(=O)[C@H](CCC(=O)O)NC(=O)[C@H](CCCCN)NC(=O)[C@H](CO)NC(=O)[C@H](CCCCN)NC(=O)[C@H](CCCNC(=N)N)NC(=O)[C@H](Cc1ccccc1)NC(=O)[C@H](Cc1ccccc1)NC(=O)[C@H](CC(=O)O)NC(=O)CNC(=O)[C@H](CC(C)C)NC(=O)[C@@H](N)CC(C)C)C(=O)NCC(=O)N[C@@H](CCCCN)C(=O)N[C@@H](CCC(=O)O)C(=O)N[C@@H](Cc1ccccc1)C(=O)N[C@@H](CCCCN)C(=O)N[C@@H](CCCNC(=N)N)C(=O)N[C@H](C(=O)N[C@H](C(=O)N[C@@H](CCC(N)=O)C(=O)N[C@@H](CCCNC(=N)N)C(=O)N[C@H](C(=O)N[C@@H](CCCCN)C(=O)N[C@@H](CC(=O)O)C(=O)N[C@@H](Cc1ccccc1)C(=O)N[C@@H](CC(C)C)C(=O)N[C@@H](CCCNC(=N)N)C(=O)N[C@@H](CC(N)=O)C(=O)N[C@@H](CC(C)C)C(=O)N[C@H](C(=O)N1CCC[C@H]1C(=O)N[C@@H](CCCNC(=N)N)C(=O)N[C@H](C(=O)N[C@@H](CCC(=O)O)C(=O)N[C@@H](CO)C(=O)O)[C@@H](C)O)C(C)C)[C@@H](C)CC)C(C)C)[C@@H](C)CC [LL-37, reference compound]
- MBC P. aeruginosa [1]: >200 µg/mL
- MIC P. aeruginosa [1]: >200 µg/mL
- MBC S. aureus [2]: >200 µg/mL
- MIC S. aureus [2]: >200 µg/mL

SMILES: CCCCCN(CCCCC)CCC[C@@H](C)[C@H]1CC[C@H]2[C@@H]3[C@H](OCCCN)C[C@@H]4C[C@H](OCCCN)CC[C@]4(C)[C@H]3C[C@H](OCCCN)[C@]12C [CSA-90]
- MBC P. aeruginosa [1]: 6.25 µg/mL (≈ 8.86 µM)
- MIC P. aeruginosa [1]: 6.25 µg/mL (≈ 8.86 µM)
- MBC S. aureus [2]: 1.56 µg/mL (≈ 2.21 µM)
- MIC S. aureus [2]: 1.56 µg/mL (≈ 2.21 µM)

SMILES: CCCCCCCCOC(=O)CC[C@@H](C)[C@H]1CC[C@H]2[C@@H]3[C@H](OC(=O)CCN)C[C@@H]4C[C@H](OC(=O)CCN)CC[C@]4(C)[C@H]3C[C@H](OC(=O)CCN)[C@]12C [CSA-44]
- MBC P. aeruginosa [1]: 6.25 µg/mL (≈ 8.51 µM)
- MIC P. aeruginosa [1]: 3.125 µg/mL (≈ 4.26 µM)
- MBC S. aureus [2]: 3.25 µg/mL (≈ 4.43 µM)
- MIC S. aureus [2]: 1.56 µg/mL (≈ 2.13 µM)

SMILES: CCCCCCCCCCOC(=O)CCC(C)C1CCC2C3C(OC(=O)CCN)CC4CC(OC(=O)CCN)CCC4(C)C3CC(OC(=O)CCN)C12C.Cl.Cl.Cl (stereo not drawn) [CSA-144]
- MBC P. aeruginosa [1]: 50 µg/mL
- MIC P. aeruginosa [1]: 12.5 µg/mL
- MBC S. aureus [2]: 3.125 µg/mL
- MIC S. aureus [2]: 3.125 µg/mL

SMILES: CCCCCCCCCCCCNCCC[C@@H](C)[C@H]1CC[C@H]2[C@@H]3[C@H](OCCCN)C[C@@H]4C[C@H](OCCCN)CC[C@]4(C)[C@H]3C[C@H](OCCCN)[C@]12C.Cl.Cl.Cl.Cl [CSA-131 HCl]
- bacterial growth in medium, Day 1 ([3]; Unwashed): N
- bacterial growth in medium, Day 2 ([3]; Unwashed): N
- bacterial growth in medium, Day 3 ([3]; Unwashed): N
- bacterial growth in medium, Day 4 ([3]; Unwashed): N
- bacterial growth in medium, Day 5 ([3]; Unwashed): G
- bacterial growth in medium, Day 6 ([3]; Unwashed): G
- bacterial growth in medium, Day 7 ([3]; Unwashed): G
- bacterial growth in medium, Day 1 ([3]; Wash Time 15 min in PBS): N
- bacterial growth in medium, Day 2 ([3]; Wash Time 15 min in PBS): N
- bacterial growth in medium, Day 3 ([3]; Wash Time 15 min in PBS): N
- bacterial growth in medium, Day 4 ([3]; Wash Time 15 min in PBS): N
- bacterial growth in medium, Day 5 ([3]; Wash Time 15 min in PBS): G
- bacterial growth in medium, Day 6 ([3]; Wash Time 15 min in PBS): G
- bacterial growth in medium, Day 7 ([3]; Wash Time 15 min in PBS): G
- bacterial growth in medium, Day 1 ([3]; Wash Time 30 min in PBS): N
- bacterial growth in medium, Day 2 ([3]; Wash Time 30 min in PBS): N
- bacterial growth in medium, Day 3 ([3]; Wash Time 30 min in PBS): N
- bacterial growth in medium, Day 4 ([3]; Wash Time 30 min in PBS): N
- bacterial growth in medium, Day 5 ([3]; Wash Time 30 min in PBS): G
- bacterial growth in medium, Day 6 ([3]; Wash Time 30 min in PBS): G
- bacterial growth in medium, Day 7 ([3]; Wash Time 30 min in PBS): G
- bacterial growth in medium, Day 1 ([3]; Wash Time 1 hour in PBS): N
- bacterial growth in medium, Day 2 ([3]; Wash Time 1 hour in PBS): N
- bacterial growth in medium, Day 3 ([3]; Wash Time 1 hour in PBS): N
- bacterial growth in medium, Day 4 ([3]; Wash Time 1 hour in PBS): N
- bacterial growth in medium, Day 5 ([3]; Wash Time 1 hour in PBS): G
- bacterial growth in medium, Day 6 ([3]; Wash Time 1 hour in PBS): G
- bacterial growth in medium, Day 7 ([3]; Wash Time 1 hour in PBS): G
- mechanical integrity of coating on silicone tube segments ([4]; CSA-131 HCl 10% relative to coating solids, prolonged soaking in buffer): some flaking of the coating
- ETO adduct formation ([4]; hydrogel coating with at least 3% (by weight relative to hydrogel solids) citric acid): eliminated
- reaction with ETO during sterilization ([4]; tube segments coated with hydrogel containing CSA-131 HCl (10%)): substantial reaction, leading to ETO adducts

SMILES: CCCCCCOC(=O)CCC(C)C1CCC2C3C(OC(=O)CCN)CC4CC(OC(=O)CCN)CCC4(C)C3CC(OC(=O)CCN)C12C.Cl.Cl.Cl (stereo not drawn) [CSA-142]
- MBC P. aeruginosa [1]: 3.125 µg/mL
- MIC P. aeruginosa [1]: 3.125 µg/mL
- MBC S. aureus [2]: 3.125 µg/mL
- MIC S. aureus [2]: 3.125 µg/mL

SMILES: CCCCCCCCNC(=O)CCC(C)C1CCC2C3C(OCCCN)CC4CC(OCCCN)CCC4(C)C3CC(OCCCN)C12C.Cl.Cl.Cl (stereo not drawn) [CSA-192]
- MBC P. aeruginosa [1]: 6.25 µg/mL
- MIC P. aeruginosa [1]: 3.125 µg/mL
- MBC S. aureus [2]: 1.56 µg/mL
- MIC S. aureus [2]: 0.78 µg/mL

SMILES: C[C@H](CCCNCCCNCCCN)[C@H]1CC[C@H]2[C@@H]3[C@H](OCCCN)C[C@@H]4C[C@H](OCCCN)CC[C@]4(C)[C@H]3C[C@H](OCCCN)[C@]12C.Cl.Cl.Cl.Cl.Cl.Cl [CSA-54]
- MBC P. aeruginosa [1]: 100 µg/mL
- MIC P. aeruginosa [1]: 50 µg/mL
- MBC S. aureus [2]: 25 µg/mL
- MIC S. aureus [2]: 6.25 µg/mL

SMILES: CC(O)C1CCC2C3C(OCCCN)CC4CC(OCCCN)CCC4(C)C3CC(OCCCN)C12C.Cl.Cl.Cl (mixture of isomers) [CSA-11]
- MBC P. aeruginosa [1]: >200 µg/mL
- MIC P. aeruginosa [1]: >200 µg/mL
- MBC S. aureus [2]: 50 µg/mL
- MIC S. aureus [2]: 50 µg/mL

SMILES: CC(CCCOCCCN)C1CCC2C3C(OCCCN)CC4CC(OCCCN)CCC4(C)C3CC(OCCCN)C12C.Cl.Cl.Cl.Cl (stereo not drawn) [CSA-25]
- MBC P. aeruginosa [1]: 50 µg/mL
- MIC P. aeruginosa [1]: 25 µg/mL
- MBC S. aureus [2]: 3.25 µg/mL
- MIC S. aureus [2]: 1.56 µg/mL

SMILES: CCCCCCCCCOC(=O)CCC(C)C1CCC2C3C(OC(=O)CCN)CC4CC(OC(=O)CCN)CCC4(C)C3CC(OC(=O)CCN)C12C.Cl.Cl.Cl (stereo not drawn) [CSA-145]
- MBC P. aeruginosa [1]: 50 µg/mL
- MIC P. aeruginosa [1]: 12.5 µg/mL
- MBC S. aureus [2]: 3.125 µg/mL
- MIC S. aureus [2]: 3.125 µg/mL

SMILES: CCCCCCCCNCCC[C@@H](C)[C@H]1CC[C@H]2[C@@H]3[C@H](OCCCN)C[C@@H]4C[C@H](OCCCN)CC[C@]4(C)[C@H]3C[C@H](OCCCN)[C@]12C [CSA-13]
- MBC P. aeruginosa [1]: 6.25 µg/mL (≈ 9.23 µM)
- MIC P. aeruginosa [1]: 3.125 µg/mL (≈ 4.62 µM)
- MBC S. aureus [2]: 0.78 µg/mL (≈ 1.15 µM)
- MIC S. aureus [2]: 0.78 µg/mL (≈ 1.15 µM)
